According to ChEMBL document CHEMBL1153303, “Iodine-catalyzed one-pot synthesis and antimalarial activity evaluation of symmetrically and asymmetrically substituted 3,6-diphenyl[1,2,4,5]tetraoxanes” (Bioorg Med Chem Lett, 2009):
pIC50: −log10 of the molar value.

Assays:
[1] = Selectivity index, ratio of IC50 for african green monkey (Cercopithecus aethiops) Vero cells to IC50 for Plasmodium falciparum W2; format: toxicity, cell-based; conditions: read-out: Ratio IC50
Vero = experiment: Cytotoxicity against african green monkey Vero cells up to 16.72 uM after 72 hrs by neutral red assay; format: cell-based; conditions: chlorocebus sabaeus
[2] = Selectivity index, ratio of IC50 for african green monkey (Cercopithecus aethiops) Vero cells to IC50 for Plasmodium falciparum D6; format: toxicity, cell-based; conditions: read-out: Ratio IC50
Plasmodium falciparum [3] = experiment: Antimalarial activity against chloroquine-resistant Plasmodium falciparum W2 in erythrocytes after 72 hrs by LDH activity; format: functional, organism-based; conditions: W2, 72 h
Plasmodium falciparum [4] = experiment: Antimalarial activity against chloroquine-sensitive Plasmodium falciparum D6 in erythrocytes after 72 hrs by LDH activity; format: functional, organism-based; conditions: D6, 72 h

SMILES	selectivity ratio [1]	Activity (Vero)	selectivity ratio [2]	pIC50 (Plasmodium falciparum [3])	pIC50 (Plasmodium falciparum [4])
CC(C)(C)c1ccc(C2OOC(c3ccc(C(C)(C)C)cc3)OO2)cc1 (stereo not drawn)	> 3.4	Non-toxic	> 6.1		
Cc1ccc(C2OOC(c3ccc(C(C)C)cc3)OO2)cc1 (stereo not drawn)	> 20.7	Non-toxic	> 26.4		
COC(=O)c1ccc(C2OOC(c3ccc(C)cc3)OO2)cc1 (stereo not drawn)	> 2.5	Non-toxic	> 4	5.22	5.42
CCCc1ccc(C2OOC(c3ccc(CCC)cc3)OO2)cc1 (stereo not drawn)	> 19	Non-toxic	> 23.8		
CCCCc1ccc(C2OOC(c3ccc(CCCC)cc3)OO2)cc1 (stereo not drawn)	> 2.8	Non-toxic	> 3.7		
CCc1ccc(C2OOC(c3ccc(C)cc3)OO2)cc1 (stereo not drawn)	> 36.7	Non-toxic	> 43.6		
Cc1ccc(C2OOC(c3ccc(C(C)(C)C)cc3)OO2)cc1 (stereo not drawn)	> 19	Non-toxic	> 25.1		
COc1ccc(C2OOC(c3ccc(C)cc3)OO2)cc1 (stereo not drawn)	> 15.4	Non-toxic	> 21.6		
CC(C)c1ccc(C2OOC(c3ccc(C(C)C)cc3)OO2)cc1 (stereo not drawn)	> 14	Non-toxic	> 21.6		
CCc1ccc(C2OOC(c3ccc(CC)cc3)OO2)cc1 (stereo not drawn)	> 15.9	Non-toxic	> 15.9		6.00
C[C@@H]1CC[C@H]2[C@@H](C)C(=O)O[C@@H]3O[C@@]4(C)CC[C@@H]1[C@]32OO4 [ARTEMISININ]	> 1400	Non-toxic	> 476	7.82	
CCN(CC)CCCC(C)Nc1ccnc2cc(Cl)ccc12 (stereo not drawn) [CHLOROQUINE]		Non-toxic			
